Laboratory results published in ChEMBL document CHEMBL1201862, “PubChem BioAssay data set” (2004).
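These data come from cells grown in 96-well plates and exposed to compound for 48 hours at five concentrations. Abbreviation: GI50, concentration required for 50% inhibition of growth.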 The source made the active and inactive calls. No stated cut-off is given here; in the data, active = GI50 up to about 1.1 µM and inactive = higher. Square brackets hold non-standard residues; d marks the D form. Peptide text beside a SMILES is read from it. ξ: configuration not given here. ξ2Thi = NC(Cc1cccs1)C(=O)O; ξR = N=C(N)NCCCC(N)C(=O)O; ξI = CCC(C)C(N)C(=O)O; ξL = CC(C)CC(N)C(=O)O; ξK = NCCCCC(N)C(=O)O; ξT = CC(O)C(N)C(=O)O; ξA = CC(N)C(=O)O

Assays:
Assay in all cases: NCI tumour cell line growth inhibition, 48 h
[1] = test system: HL-60
[2] = test system: SF-539
[3] = test system: SNB-19
[4] = test system: SF-295
[5] = test system: MDA-MB-435
[6] = test system: MCF7
[7] = test system: LOX IMVI
[8] = test system: UO-31
[9] = test system: SF-268
[10] = test system: BT-549
[11] = test system: A498
[12] = test system: PC-3
[13] = test system: Hs-578T
[14] = test system: IGROV-1
[15] = test system: DU-145
[16] = test system: HT-29
[17] = test system: HCT-15
[18] = test system: HCT-116
[19] = test system: RXF 393
[20] = test system: SK-MEL-28
[21] = test system: SK-MEL-2
[22] = test system: SNB-75
[23] = test system: NCI-H226
[24] = test system: OVCAR-5
[25] = test system: 786-0
[26] = test system: UACC-62
[27] = test system: COLO 205
[28] = test system: ACHN
[29] = test system: NCI/ADR-RES
[30] = test system: A549
[31] = test system: SW-620
[32] = test system: OVCAR-8
[33] = test system: NCI-H23
[34] = test system: MOLT-4
[35] = test system: EKVX
[36] = test system: Malme-3M
[37] = test system: NCI-H522
[38] = test system: NCI-H460
[39] = test system: HOP-62
[40] = test system: CCRF-CEM
[41] = test system: SN12C
[42] = test system: UACC-257
[43] = test system: TK-10
[44] = test system: M14
[45] = test system: CAKI-1
[46] = test system: HOP-92
[47] = test system: OVCAR-3
[48] = test system: U-251
[49] = test system: MDA-MB-231
[50] = test system: MDA-N
[51] = test system: T47D
[52] = test system: KM12
[53] = test system: SK-MEL-5
[54] = test system: OVCAR-4
[55] = test system: SK-OV-3
[56] = test system: SR
[57] = test system: RPMI-8226
[58] = test system: K562
[59] = test system: HCC 2998

With `O=C(CC1C=Cc2ccccc2N1C(=O)c1ccccc1)c1ccccc1` (stereo not given) the GI50 [1] was 14 µM (inactive), the GI50 [2] was 22.6 µM (inactive) and the GI50 [3] was 27.7 µM (inactive). For the same molecule, the GI50 [4] was 27 µM (inactive), the GI50 [5] was 20.4 µM (inactive) and the GI50 [6] was 29.1 µM (inactive). The GI50 [7] was 23.6 µM (inactive), the GI50 [8] was 20.4 µM (inactive) and the GI50 [9] was 27.1 µM (inactive). The GI50 [10] was 23.8 µM (inactive), the GI50 [11] was 28.9 µM (inactive) and the GI50 [12] was 26.5 µM (inactive). The GI50 [13] was 25.1 µM (inactive), the GI50 [14] was 19.1 µM (inactive) and the GI50 [15] was 50.8 µM (inactive). The GI50 [16] was 17.1 µM (inactive), the GI50 [17] was 26.2 µM and the GI50 [18] was 16 µM (inactive). For the same molecule, the GI50 [19] was 47.2 µM (inactive), the GI50 [20] was 30.1 µM (inactive) and the GI50 [21] was 17.3 µM (inactive). For the same molecule, the GI50 [22] was 45.2 µM (inactive), the GI50 [23] was 34.4 µM (inactive) and the GI50 [24] was 25.5 µM (inactive). For the same molecule, the GI50 [25] was 29.3 µM (inactive), the GI50 [26] was 11.7 µM (inactive) and the GI50 [27] was 19.5 µM (inactive). The GI50 [28] was 35.6 µM (inactive), the GI50 [29] was 25.8 µM (inactive) and the GI50 [30] was 22.5 µM (inactive). For the same molecule, the GI50 [31] was 33.6 µM (inactive), the GI50 [32] was 29.2 µM (inactive) and the GI50 [33] was 23 µM (inactive). For the same molecule, the GI50 [34] was 11.7 µM (inactive), the GI50 [35] was 12.6 µM (inactive) and the GI50 [36] was 21.7 µM (inactive). The GI50 [37] was 13.8 µM (inactive), the GI50 [38] was 22.8 µM (inactive) and the GI50 [39] was 30.6 µM (inactive). The GI50 [40] was 36.1 µM (inactive), the GI50 [41] was 27 µM (inactive) and the GI50 [42] was 20.5 µM (inactive). The GI50 [43] was 36.3 µM (inactive), the GI50 [44] was 20.1 µM (inactive) and the GI50 [45] was 34.2 µM (inactive). The GI50 [46] was 24 µM (inactive), the GI50 [47] was 13.4 µM (inactive) and the GI50 [48] was 23.1 µM (inactive). The GI50 [49] was 21.9 µM (inactive), the GI50 [50] was 16.1 µM (inactive) and the GI50 [51] was 44.2 µM (inactive). For the same molecule, the GI50 [52] was 19.3 µM (inactive), the GI50 [53] was 13.3 µM (inactive) and the GI50 [54] was 34.8 µM (inactive). For the same molecule, the GI50 [55] was 30.9 µM (inactive), the GI50 [56] was 11.9 µM (inactive) and the GI50 [57] was 10.9 µM (inactive). The GI50 [58] was 19.9 µM (inactive).

For `CCC(C)C(NC(=O)C(Cc1cccs1)NC(=O)C(CC(C)C)NC(=O)C(CC(C)C)NC(=O)C(CCCCN)NC(=O)C(CCCN=C(N)N)NC(=O)[C@H](Cc1ccc(O)cc1)NC(=O)C(NC(=O)C(C)NC(=O)C(N)CC(C)C)C(C)O)C(=O)NC(CC(C)C)C(N)=O` (stereo not given in full) (H-[ξL][ξA][ξT]Y[ξR][ξK][ξL][ξL][ξ2Thi][ξI][ξL]-NH2), the GI50 [2] was > 50 µM (inactive), the GI50 [3] was > 50 µM (inactive) and the GI50 [4] was > 50 µM (inactive). The GI50 [5] was > 50 µM (inactive), the GI50 [6] was > 50 µM (inactive) and the GI50 [7] was > 50 µM (inactive). The GI50 [8] was > 50 µM (inactive), the GI50 [9] was > 50 µM (inactive) and the GI50 [10] was > 50 µM (inactive). For the same molecule, the GI50 [11] was > 50 µM (inactive), the GI50 [12] was > 50 µM (inactive) and the GI50 [13] was > 50 µM (inactive). The GI50 [15] was > 50 µM (inactive), the GI50 [16] was > 50 µM (inactive) and the GI50 [17] was over 50 µM. The GI50 [18] was > 50 µM (inactive), the GI50 [19] was > 50 µM (inactive) and the GI50 [20] was > 50 µM (inactive). For the same molecule, the GI50 [22] was > 50 µM (inactive), the GI50 [23] was > 50 µM (inactive) and the GI50 [24] was > 50 µM (inactive). For the same molecule, the GI50 [25] was > 50 µM (inactive), the GI50 [26] was > 50 µM (inactive) and the GI50 [27] was > 50 µM (inactive). The GI50 [28] was > 50 µM (inactive), the GI50 [29] was > 50 µM (inactive) and the GI50 [30] was > 50 µM (inactive). For the same molecule, the GI50 [31] was > 50 µM (inactive), the GI50 [32] was > 50 µM (inactive) and the GI50 [33] was > 50 µM (inactive). The GI50 [34] was > 50 µM (inactive), the GI50 [35] was > 50 µM (inactive) and the GI50 [36] was > 50 µM (inactive). The GI50 [37] was > 50 µM (inactive), the GI50 [38] was > 50 µM (inactive) and the GI50 [39] was > 50 µM (inactive). For the same molecule, the GI50 [40] was > 50 µM (inactive), the GI50 [41] was > 50 µM (inactive) and the GI50 [42] was > 50 µM (inactive). For the same molecule, the GI50 [43] was > 50 µM (inactive), the GI50 [44] was > 50 µM (inactive) and the GI50 [45] was > 50 µM (inactive). For the same molecule, the GI50 [47] was > 50 µM (inactive), the GI50 [48] was > 50 µM (inactive) and the GI50 [49] was > 50 µM (inactive). The GI50 [50] was > 50 µM (inactive), the GI50 [51] was > 50 µM (inactive) and the GI50 [52] was > 50 µM (inactive). For the same molecule, the GI50 [53] was > 50 µM (inactive), the GI50 [59] was > 50 µM (inactive) and the GI50 [54] was > 50 µM (inactive). For the same molecule, the GI50 [55] was > 50 µM (inactive), the GI50 [56] was > 50 µM (inactive) and the GI50 [57] was > 50 µM (inactive). The GI50 [58] was > 50 µM (inactive).

With `Cc1cn(C2CCN(CC3COC(C)(C)O3)O2)c(=O)[nH]c1=O` (stereo not given) the GI50 [1] was > 100 µM (inactive), the GI50 [2] was > 100 µM (inactive) and the GI50 [4] was > 100 µM (inactive). The GI50 [5] was > 100 µM (inactive), the GI50 [6] was > 100 µM (inactive) and the GI50 [7] was > 100 µM (inactive). The GI50 [8] was > 100 µM (inactive), the GI50 [9] was > 100 µM (inactive) and the GI50 [10] was > 100 µM (inactive). The GI50 [11] was > 100 µM (inactive), the GI50 [12] was > 100 µM (inactive) and the GI50 [13] was > 100 µM (inactive). The GI50 [14] was > 100 µM (inactive), the GI50 [15] was > 100 µM (inactive) and the GI50 [16] was > 100 µM (inactive). The GI50 [17] was over 100 µM, the GI50 [18] was > 100 µM (inactive) and the GI50 [19] was > 100 µM (inactive). For the same molecule, the GI50 [20] was > 100 µM (inactive), the GI50 [21] was > 100 µM (inactive) and the GI50 [22] was > 100 µM (inactive). The GI50 [23] was > 100 µM (inactive), the GI50 [24] was > 100 µM (inactive) and the GI50 [25] was > 100 µM (inactive). The GI50 [26] was > 100 µM (inactive), the GI50 [27] was > 100 µM (inactive) and the GI50 [28] was > 100 µM (inactive). For the same molecule, the GI50 [29] was > 100 µM (inactive), the GI50 [30] was > 100 µM (inactive) and the GI50 [31] was > 100 µM (inactive). For the same molecule, the GI50 [32] was > 100 µM (inactive), the GI50 [33] was > 100 µM (inactive) and the GI50 [34] was > 100 µM (inactive). For the same molecule, the GI50 [35] was > 100 µM (inactive), the GI50 [36] was > 100 µM (inactive) and the GI50 [37] was > 100 µM (inactive). For the same molecule, the GI50 [38] was > 100 µM (inactive), the GI50 [39] was > 100 µM (inactive) and the GI50 [40] was > 100 µM (inactive). For the same molecule, the GI50 [41] was > 100 µM (inactive), the GI50 [42] was > 100 µM (inactive) and the GI50 [43] was > 100 µM (inactive). For the same molecule, the GI50 [44] was > 100 µM (inactive), the GI50 [45] was > 100 µM (inactive) and the GI50 [46] was > 100 µM (inactive). The GI50 [47] was > 100 µM (inactive), the GI50 [48] was > 100 µM (inactive) and the GI50 [49] was > 100 µM (inactive). The GI50 [50] was > 100 µM (inactive), the GI50 [51] was > 100 µM (inactive) and the GI50 [52] was > 100 µM (inactive). The GI50 [53] was > 100 µM (inactive), the GI50 [54] was > 100 µM (inactive) and the GI50 [55] was > 100 µM (inactive). For the same molecule, the GI50 [56] was > 100 µM (inactive), the GI50 [57] was > 100 µM (inactive) and the GI50 [58] was > 100 µM (inactive).
